Experimental data taken from patent US9084779B2, “Conjugates of nitroimidazoles and their use as chemotherapeutic agents” (The Johns Hopkins University, priority 2011, dated 2015).

Tests used:
Assay type in all cases: cell-based
[1] = system: Hep3B human hepatocellular carcinoma cells; assay: MTS tetrazolium cell proliferation assay, 72-h exposure; conditions: normoxic (21% O2), read-out: IC50 Normoxic (N)
Description: Anti-proliferative assay. The human hepatocellular carcinoma cell line Hep3B was purchased from American Type culture Collection (ATCC, Manassas, Va.). Dulbecco's Modified Eagle Medium (DMEM) and penicillin/streptomycin (P/S) were obtained from GIBCO Invitrogen. Fetal Bovine serum (FBS) was obtained from Thermo Scientific Hyclone. Dimethyl sulfoxide (DMSO-Hybri-Max) was purchased from Sigma-Aldrich Co. and the CellTiter 96 AQueous One Solution Cell Proliferation Assay (MTS) was acquired from Promega Corp. Hep3B cells were maintained in DMEM supplemented with 10% FBS and 1× P/S solution. Cultures were incubated at 37° C. in a 5% CO2 atmosphere with 99% humidity. Stock solutions of test compounds were prepared in DMSO for use in the cell culture viability assays.
MTS tetrazolium cell proliferation assay. The viability of Hep3B cells exposed to the synthesized compounds was determined by the MTS assay. Briefly, Hep3B cells were plated in 96-well plates at a density of 3.0×10^3 cells/well and incubated for 24-h before treatment. At the initiation of treatment, the growth media was replaced with 200 μL of media containing increasing concentrations of the test compounds in triplicate wells. The final DMSO concentration in the media was 1.0% including the media added to the control wells minus the test compound. After a 72-hour incubation, 40 μL of MTS solution was added to each well and the plates were incubated for an additional 3.0 hours. The plates were then read at 490 nm on a Biotek Instruments PowerWave 200 microplate reader. For each experiment the percent growth inhibition relative to the control (no drug addition) was calculated and a dose inhibition curve was generated. The concentration of drug required to inhibit cell growth by 50% (IC50) compared to the control cells was then determined by non-linear regression using PSI-Plot software (Poly Software International).
Antiproliferative activity. The anti-cancer activities of the parent compounds 3 and 8 and the conjugated compounds 7a-d and 10a-d were tested against Hep3B human hepatocellular carcinoma cells in culture.

[2] = system: Hep3B human hepatocellular carcinoma cells; assay: Hypoxia targeting assay, 5-h exposure then 5 days growth, MTS; conditions: for IC50: Homo sapiens
Experimental: Hypoxia targeting assay. Hep3B cells, plated in 96-well plates at a density of 3.0×10^3 cells/well, were incubated overnight and then treated with the test compounds for 5.0 hours at under hypoxic (1% O2) or normoxic (21% O2) conditions. Exposure of cells to hypoxia was carried out in a PROOX C-Chamber with O2 and CO2 levels modulated by a PROOX Model C21 Controller (BioSpherix). At the end of the treatment period, the wells were washed with phosphate buffered saline (PBS) and fresh compound-free media was added. The cells were cultured for an additional 5 days under normoxic conditions and then assayed for cell proliferation using the MTS assay.
Hypoxia targeting. Nitroimidazoles are converted to reactive compounds in hypoxic cells. Therefore it is of importance to compare the antiproliferative activities of the nitroimidazole conjugated compounds against Hep3B cells under normoxic and hypoxic conditions. In these experiments, Hep3B cells in culture were treated with each of the conjugated compounds 7c-d, 10c-d, or the parent compounds 3 or 8 for a 5.0-hour period under normoxic (21% O2) or hypoxic (1.0% O2) conditions. After treatment, the cells were returned to normal conditions and assayed for proliferation after 5 days of additional growth. […] The ratio between the IC50 values for each drug under normoxic versus hypoxic culture conditions was computed and used as a measure of the relative increase in potency.

[3] = system: LNCaP human prostate cancer cells; assay: Western blot analysis of 2-nitroimidazole induced protein adducts in cell culture; conditions: 80 μM, 6 hours normoxic then 6 hours hypoxic or normoxic
Experimental: Western blot analysis of 2-nitroimidazole induced protein adducts in LNCaP cell cultures. Exponentially growing LNCaP human prostate cancer cells were treated with DMSO, 80 μM M3N-PEG-2NI or Hypoxyprobe-1 in standard media for 6 hours under normoxic conditions and then under hypoxic or normoxic conditions for additional 6 hours. Afterward the media was aspirated, the cells washed and ice cold RIPA lysis buffer was added and the cells lysed on ice for 15 minutes. The samples were centrifuged and the lysate collected. Cellular proteins in the extracts were analyzed for the presence of protein adducts using standard western blotting technique. The primary antibody was PAb2627 polyclonal antibody (1:200) directed against Hydroxyprobe-1 protein adducts. The secondary antibody was Anti-Rabbit HRP conjugate (1:2000). Detection was by chemiluminescence

COc1ccc(C[C@H](C)[C@H](C)Cc2ccc(OC)c(OCCOCCOCCOCCn3ccnc3[N+](=O)[O-])c2)cc1OC (racemic) [Compound 7d, (±)-(2R,3S)-4-(3,4-Dimethoxyphenyl)-1-[4-methoxy-3-[12-(2-nitro-1H-imidazol-1-yl)-1,4,7,10-tetraoxadodecanyl]phenyl]-2,3-dimethylbutane]
IC50 [1]: 12.6 ± 4.9 µM
IC50 ([2]; hypoxic (1.0% O2), then 5 days normoxic growth, read-out: IC50 Hypoxic (H)): 53.2 ± 8 µM
IC50 ([2]; normoxic (21% O2), then 5 days growth, read-out: IC50 Normoxic (N)): 60.8 ± 9.4 µM
Ratio IC50 (N)/IC50 (H) ([2]; normoxic versus hypoxic): 1.14
Protein adducts by western blot (PAb2627 antibody) [3]: showed evidence of protein adducts
